Laboratory results as given in ChEMBL document CHEMBL1201862, “PubChem BioAssay data set” (2004).
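Method: 48-hour compound exposure of cells in 96-well plates, five concentrations, linear interpolation of endpoints. The concentration for 50% growth inhibition is given as GI50.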 The source made the active and inactive calls. No stated cut-off is given here; in the data, active = GI50 up to about 1.1 µM and inactive = higher.

Tests used:
Experiment in all cases: DTP human tumour cell line panel, 48 h
[1] = tested on: 786-0
[2] = tested on: A498
[3] = tested on: A549
[4] = tested on: ACHN
[5] = tested on: BT-549
[6] = tested on: CAKI-1
[7] = tested on: CCRF-CEM
[8] = tested on: COLO 205
[9] = tested on: DU-145
[10] = tested on: EKVX
[11] = tested on: HCC 2998
[12] = tested on: HCT-116
[13] = tested on: HCT-15
[14] = tested on: HL-60
[15] = tested on: HOP-62
[16] = tested on: HOP-92
[17] = tested on: HT-29
[18] = tested on: Hs-578T
[19] = tested on: IGROV-1
[20] = tested on: K562
[21] = tested on: KM12
[22] = tested on: LOX IMVI
[23] = tested on: M14
[24] = tested on: MCF7
[25] = tested on: MDA-MB-231
[26] = tested on: MDA-MB-435
[27] = tested on: MDA-N
[28] = tested on: MOLT-4
[29] = tested on: Malme-3M
[30] = tested on: NCI-H226
[31] = tested on: NCI-H23
[32] = tested on: NCI-H460
[33] = tested on: NCI-H522
[34] = tested on: NCI/ADR-RES
[35] = tested on: OVCAR-3
[36] = tested on: OVCAR-4
[37] = tested on: OVCAR-5
[38] = tested on: OVCAR-8
[39] = tested on: PC-3
[40] = tested on: RPMI-8226
[41] = tested on: RXF 393
[42] = tested on: SF-268
[43] = tested on: SF-295
[44] = tested on: SF-539
[45] = tested on: SK-MEL-28
[46] = tested on: SK-MEL-2
[47] = tested on: SK-MEL-5
[48] = tested on: SK-OV-3
[49] = tested on: SN12C
[50] = tested on: SNB-19
[51] = tested on: SNB-75
[52] = tested on: SR
[53] = tested on: SW-620
[54] = tested on: T47D
[55] = tested on: TK-10
[56] = tested on: U-251
[57] = tested on: UACC-257
[58] = tested on: UACC-62
[59] = tested on: UO-31

COc1ccc([C@H]2C=C(c3cc(F)c(Cl)cc3Cl)NC(=S)N2)cc1
GI50 [1]: 33.6 µM (inactive)
GI50 [2]: 28.1 µM (inactive)
GI50 [3]: 35.3 µM (inactive)
GI50 [4]: 36.9 µM (inactive)
GI50 [5]: 32.7 µM (inactive)
GI50 [6]: 29.4 µM (inactive)
GI50 [7]: 30.2 µM (inactive)
GI50 [8]: 19.1 µM (inactive)
GI50 [9]: 39.9 µM (inactive)
GI50 [10]: 28 µM (inactive)
GI50 [11]: 23.9 µM (inactive)
GI50 [12]: 27 µM (inactive)
GI50 [13]: 28.7 µM
GI50 [14]: 11.3 µM (inactive)
GI50 [15]: 38.6 µM (inactive)
GI50 [16]: 24 µM (inactive)
GI50 [17]: 26.2 µM (inactive)
GI50 [18]: 79.1 µM (inactive)
GI50 [19]: 31.4 µM (inactive)
GI50 [20]: 15.2 µM (inactive)
GI50 [21]: 29.2 µM (inactive)
GI50 [22]: 37.3 µM (inactive)
GI50 [23]: 32.5 µM (inactive)
GI50 [24]: 32.6 µM (inactive)
GI50 [25]: 27.2 µM (inactive)
GI50 [26]: 12.8 µM (inactive)
GI50 [27]: 11.1 µM (inactive)
GI50 [28]: 17.7 µM (inactive)
GI50 [29]: 40.6 µM (inactive)
GI50 [30]: 56.1 µM (inactive)
GI50 [31]: 37.5 µM (inactive)
GI50 [32]: 20.1 µM (inactive)
GI50 [33]: 31.8 µM (inactive)
GI50 [34]: 25.7 µM (inactive)
GI50 [35]: 33.7 µM (inactive)
GI50 [36]: 28.3 µM (inactive)
GI50 [37]: 43.1 µM (inactive)
GI50 [38]: 40.3 µM (inactive)
GI50 [39]: 19.9 µM (inactive)
GI50 [40]: 21.7 µM (inactive)
GI50 [41]: 18.8 µM (inactive)
GI50 [42]: 48.5 µM (inactive)
GI50 [43]: 24.3 µM (inactive)
GI50 [44]: 42.4 µM (inactive)
GI50 [45]: 47 µM (inactive)
GI50 [46]: 25.1 µM (inactive)
GI50 [47]: 11.9 µM (inactive)
GI50 [48]: 44.1 µM (inactive)
GI50 [49]: 21.3 µM (inactive)
GI50 [50]: 61 µM (inactive)
GI50 [51]: 18.2 µM (inactive)
GI50 [52]: 5.24 µM (inactive)
GI50 [53]: 30.9 µM (inactive)
GI50 [54]: 18.7 µM (inactive)
GI50 [55]: 32.7 µM (inactive)
GI50 [56]: 26.7 µM (inactive)
GI50 [57]: 24.9 µM (inactive)
GI50 [58]: 28.3 µM (inactive)
GI50 [59]: 36.6 µM (inactive)

c1ccc(CSc2ccccc2CN2CCN(Cc3ccccc3SCc3ccccc3)CCN(Cc3ccccc3SCc3ccccc3)CC2)cc1
GI50 [1]: 1.61 µM (inactive)
GI50 [2]: 2.25 µM (inactive)
GI50 [3]: 2.35 µM (inactive)
GI50 [4]: 2.58 µM (inactive)
GI50 [5]: 1.87 µM (inactive)
GI50 [6]: 3.21 µM (inactive)
GI50 [7]: 2.35 µM (inactive)
GI50 [8]: 0.869 µM (active)
GI50 [9]: 2.94 µM (inactive)
GI50 [10]: 1.2 µM (inactive)
GI50 [11]: 1.09 µM (active)
GI50 [12]: 0.646 µM (active)
GI50 [13]: 1.61 µM
GI50 [14]: 1.5 µM (inactive)
GI50 [15]: 1.93 µM (inactive)
GI50 [16]: 0.359 µM (active)
GI50 [17]: 0.499 µM (active)
GI50 [18]: 1.85 µM (inactive)
GI50 [20]: 0.989 µM (active)
GI50 [21]: 1.58 µM (inactive)
GI50 [22]: 1.33 µM (inactive)
GI50 [23]: 1.55 µM (inactive)
GI50 [24]: 1.48 µM (inactive)
GI50 [25]: 1.51 µM (inactive)
GI50 [26]: 1.31 µM (inactive)
GI50 [27]: 1.52 µM (inactive)
GI50 [28]: 1.63 µM (inactive)
GI50 [29]: 1.71 µM (inactive)
GI50 [30]: 1.81 µM (inactive)
GI50 [31]: 0.951 µM (active)
GI50 [32]: 1.19 µM (inactive)
GI50 [33]: 0.395 µM (active)
GI50 [34]: 2.44 µM (inactive)
GI50 [35]: 0.466 µM (active)
GI50 [36]: 1.45 µM (inactive)
GI50 [37]: 1.64 µM (inactive)
GI50 [38]: 1.22 µM (inactive)
GI50 [39]: 1.26 µM (inactive)
GI50 [40]: 0.384 µM (active)
GI50 [41]: 1.77 µM (inactive)
GI50 [42]: 2.94 µM (inactive)
GI50 [43]: 1.04 µM (active)
GI50 [44]: 1.86 µM (inactive)
GI50 [45]: 1.88 µM (inactive)
GI50 [46]: 1.45 µM (inactive)
GI50 [47]: 1.57 µM (inactive)
GI50 [48]: 2.21 µM (inactive)
GI50 [49]: 1.72 µM (inactive)
GI50 [50]: 1.92 µM (inactive)
GI50 [51]: 1.6 µM (inactive)
GI50 [52]: 2.16 µM (inactive)
GI50 [53]: 2.38 µM (inactive)
GI50 [54]: 1.43 µM (inactive)
GI50 [55]: 2.3 µM (inactive)
GI50 [56]: 0.869 µM (active)
GI50 [57]: 1.39 µM (inactive)
GI50 [58]: 1.43 µM (inactive)
GI50 [59]: 2.59 µM (inactive)

CCOC(=O)c1nc2cc(C(F)(F)F)ccc2nc1Nc1ccc(Cl)c(Cl)c1
GI50 [1]: > 100 µM (inactive)
GI50 [2]: > 100 µM (inactive)
GI50 [3]: 84.3 µM (inactive)
GI50 [4]: > 100 µM (inactive)
GI50 [5]: 86.3 µM (inactive)
GI50 [6]: > 100 µM (inactive)
GI50 [7]: 67.5 µM (inactive)
GI50 [8]: > 100 µM (inactive)
GI50 [9]: > 100 µM (inactive)
GI50 [10]: > 100 µM (inactive)
GI50 [11]: 69.3 µM (inactive)
GI50 [12]: 69.7 µM (inactive)
GI50 [13]: > 100 µM
GI50 [14]: 31.8 µM (inactive)
GI50 [15]: 76.6 µM (inactive)
GI50 [16]: 24.2 µM (inactive)
GI50 [17]: 66.8 µM (inactive)
GI50 [18]: > 100 µM (inactive)
GI50 [19]: > 100 µM (inactive)
GI50 [21]: 65 µM (inactive)
GI50 [22]: > 100 µM (inactive)
GI50 [23]: > 100 µM (inactive)
GI50 [24]: > 100 µM (inactive)
GI50 [25]: > 100 µM (inactive)
GI50 [26]: 62.7 µM (inactive)
GI50 [27]: > 100 µM (inactive)
GI50 [28]: > 100 µM (inactive)
GI50 [29]: > 100 µM (inactive)
GI50 [30]: > 100 µM (inactive)
GI50 [31]: > 100 µM (inactive)
GI50 [32]: 35.3 µM (inactive)
GI50 [33]: > 100 µM (inactive)
GI50 [34]: > 100 µM (inactive)
GI50 [35]: > 100 µM (inactive)
GI50 [36]: 97.5 µM (inactive)
GI50 [37]: > 100 µM (inactive)
GI50 [38]: > 100 µM (inactive)
GI50 [39]: 75.2 µM (inactive)
GI50 [40]: 33.4 µM (inactive)
GI50 [41]: > 100 µM (inactive)
GI50 [42]: > 100 µM (inactive)
GI50 [43]: 74.6 µM (inactive)
GI50 [44]: > 100 µM (inactive)
GI50 [45]: > 100 µM (inactive)
GI50 [46]: > 100 µM (inactive)
GI50 [47]: > 100 µM (inactive)
GI50 [48]: 97.9 µM (inactive)
GI50 [49]: > 100 µM (inactive)
GI50 [50]: > 100 µM (inactive)
GI50 [51]: 58.1 µM (inactive)
GI50 [52]: 49.9 µM (inactive)
GI50 [53]: 73.3 µM (inactive)
GI50 [54]: > 100 µM (inactive)
GI50 [55]: > 100 µM (inactive)
GI50 [56]: 53.6 µM (inactive)
GI50 [57]: > 100 µM (inactive)
GI50 [58]: > 100 µM (inactive)
GI50 [59]: > 100 µM (inactive)
